Experimental data published in patent US6426331B1, “Inhibitors of STAT function” (Tularik Inc., priority 1998, dated 2002).

Target: T1, STAT6 (Homo sapiens, UniProt P42226)
T1 sequence (P42226 1-847): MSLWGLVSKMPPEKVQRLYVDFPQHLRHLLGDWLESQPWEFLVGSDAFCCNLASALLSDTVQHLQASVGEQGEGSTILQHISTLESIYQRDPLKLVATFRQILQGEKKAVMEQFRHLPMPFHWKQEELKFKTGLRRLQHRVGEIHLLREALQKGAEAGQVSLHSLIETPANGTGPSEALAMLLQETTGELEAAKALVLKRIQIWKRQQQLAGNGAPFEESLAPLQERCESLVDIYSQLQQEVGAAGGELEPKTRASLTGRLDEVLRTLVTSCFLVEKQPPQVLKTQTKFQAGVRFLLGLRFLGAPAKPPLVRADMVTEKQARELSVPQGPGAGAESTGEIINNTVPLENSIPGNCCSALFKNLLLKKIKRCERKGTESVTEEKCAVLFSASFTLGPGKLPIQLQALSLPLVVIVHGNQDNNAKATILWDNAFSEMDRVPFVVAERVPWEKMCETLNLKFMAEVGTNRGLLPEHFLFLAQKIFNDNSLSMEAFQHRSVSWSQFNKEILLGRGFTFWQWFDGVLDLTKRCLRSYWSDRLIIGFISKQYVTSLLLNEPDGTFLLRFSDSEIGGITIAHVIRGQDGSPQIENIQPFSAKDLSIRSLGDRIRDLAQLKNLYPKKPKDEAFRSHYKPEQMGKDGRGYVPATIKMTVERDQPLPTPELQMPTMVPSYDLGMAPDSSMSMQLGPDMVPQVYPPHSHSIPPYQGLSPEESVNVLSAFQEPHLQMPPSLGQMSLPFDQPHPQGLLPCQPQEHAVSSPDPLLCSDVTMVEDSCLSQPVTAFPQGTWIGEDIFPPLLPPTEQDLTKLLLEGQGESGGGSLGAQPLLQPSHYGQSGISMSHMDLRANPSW
Assay: Inhibition of STAT6 binding (duplex formation)
Experimental: The compounds of the present invention can be evaluated for STAT binding activity using methods such as those described in U.S. Pat. No. 6,207,391 (for STAT6 binding). Other assays for STAT binding can be found in, for example, U.S. Pat. Nos. 5,618,693, 5,639,858 and 5,756,700.
Using methods similar to those described in Examples 1 and 2, the compounds provided in Table 1 were prepared and evaluated as inhibitors of STAT6 binding (duplex formation). The assay is described in U.S. Pat. No. 6,207,391, filed Mar. 31, 1998. In each of the tables below: a + symbol indicates and IC50 of >100 μM; a ++ symbol indicates and IC50 of 50-100 μM; a +++ symbol indicates and IC50 of 1-50 μM; and a ++++ symbol indicates and IC50 of <1.0 μM.

[1] = Table 1, inhibitors of STAT6 binding (duplex formation)

IC50 [1]	Compound	IC50 (Table 3, STAT6 binding)	other results
> 100 µM	Cc1ccc(S(=O)(=O)N[C@@H]2C[C@@H](C(=O)N(Cc3ccccc3)c3ccc(C(N)=O)cc3)N(C(=O)[C@@H](NC(=O)/C=C/c3ccc(C(O)C(=O)O)cc3)C(C)(C)C)C2)cc1 (stereo partly drawn) [drawing 46: H, —NH-Tosyl, 4-CONH2, H]		
1 to 50 µM	CC(=O)N[C@@H]1C[C@@H](C(=O)N(Cc2ccccc2)c2ccc(C(N)=O)cc2)N(C(=O)[C@@H](NC(=O)/C=C/c2ccc(C(O)C(=O)O)cc2)C(C)(C)C)C1 (stereo partly drawn) [drawing 46: H, —NHAc, 4-CONH2, H]		
1 to 50 µM	CC(C)(C)[C@H](NC(=O)/C=C/c1ccc(C(O)C(=O)O)cc1)C(=O)N1C[C@H](NC(=O)c2ccccc2)C[C@H]1C(=O)N(Cc1ccccc1)c1ccc(C(N)=O)cc1 (stereo partly drawn) [drawing 46: H, —NHBz, 4-CONH2, H]		
1 to 50 µM	CC(C)(C)[C@H](NC(=O)/C=C/c1ccc(C(O)C(=O)O)cc1)C(=O)N1C[C@H](NC(=O)OCc2ccccc2)C[C@H]1C(=O)N(Cc1ccccc1)c1ccc(C(N)=O)cc1 (stereo partly drawn) [drawing 46: H, —NHCO2Bn, 4-CONH2, H]		
1 to 50 µM	CC(C)C(=O)N[C@@H]1C[C@@H](C(=O)N(Cc2ccccc2)c2ccc(C(N)=O)cc2)N(C(=O)[C@@H](NC(=O)/C=C/c2ccc(C(O)C(=O)O)cc2)C(C)(C)C)C1 (stereo partly drawn) [drawing 46: H, —NHCOCH(CH3)2, 4-CONH2, H]		
1 to 50 µM	CC(C)(C)[C@H](NC(=O)/C=C/c1ccc(C(O)C(=O)O)cc1)C(=O)N1C[C@H](NS(C)(=O)=O)C[C@H]1C(=O)N(Cc1ccccc1)c1ccc(C(N)=O)cc1 (stereo partly drawn) [drawing 46: H, —NHSO2CH3,4-CONH2, H]		
1 to 50 µM	CC(=O)N[C@H]1C[C@@H](C(=O)N(Cc2ccccc2)c2ccc(C(N)=O)cc2)N(C(=O)[C@@H](NC(=O)/C=C/c2ccc(C(O)C(=O)O)cc2)C(C)(C)C)C1 (stereo partly drawn) [drawing 46: —NHAC, H, 4-CONH2, H]		
	Cc1ccc(N(C(=O)C2CCCN2C(=O)C(NC(=O)C=Cc2ccc(OP(=O)(O)O)cc2)C(C)(C)C)c2ccccc2)cc1 (stereo not drawn) [drawing 69: CH3]	< 1 µM	
	COC(=O)c1ccc(N(C(=O)C2CCCN2C(=O)C(NC(=O)C=Cc2ccc(OP(=O)(O)O)cc2)C(C)(C)C)c2ccccc2)cc1 (stereo not drawn) [drawing 69: CO2CH3]	< 1 µM	
	CC(C)(C)C(NC(=O)C=Cc1ccc(OP(=O)(O)O)cc1)C(=O)N1CCCC1C(=O)N(c1ccccc1)c1ccc(C(=O)O)cc1 (stereo not drawn) [drawing 69: CO2H]	1 to 50 µM	
	CC(C)(C)C(NC(=O)C=Cc1ccc(OP(=O)(O)O)cc1)C(=O)N1CCCC1C(=O)N(c1ccccc1)c1ccc(C(N)=O)cc1 (stereo not drawn) [drawing 69: CONH2]	< 1 µM	
	CC(C)(C)C(NC(=O)C=Cc1ccc(OP(=O)(O)O)cc1)C(=O)N1CCCC1C(=O)N(c1ccccc1)c1ccc(Cl)cc1 (stereo not drawn) [drawing 69: Cl]	< 1 µM	
	CC(C)(C)C(NC(=O)C=Cc1ccc(OP(=O)(O)O)cc1)C(=O)N1CCCC1C(=O)N(c1ccccc1)c1ccccc1 (stereo not drawn) [drawing 69: H]	< 1 µM	
	CC(C)(C)C(NC(=O)C=Cc1ccc(OP(=O)(O)O)cc1)C(=O)N1CCCC1C(=O)N(c1ccccc1)c1ccc(I)cc1 (stereo not drawn) [drawing 69: I]	< 1 µM	
	COc1ccc(N(C(=O)C2CCCN2C(=O)C(NC(=O)C=Cc2ccc(OP(=O)(O)O)cc2)C(C)(C)C)c2ccccc2)cc1 (stereo not drawn) [drawing 69: OCH3]	< 1 µM	
	CC(=O)NCc1cccc(N(Cc2ccc(C(N)=O)cc2)C(=O)C2CCCN2C(=O)C(NC(=O)C=Cc2ccc(OP(=O)(O)O)cc2)C(C)(C)C)c1 (stereo not drawn) [drawing 70: 3-CH2NHAc, 4-CONH2]		IC50 (Table 4, STAT6 binding): < 1 µM
	CC(=O)NCc1ccc(CN(C(=O)C2CCCN2C(=O)C(NC(=O)C=Cc2ccc(OP(=O)(O)O)cc2)C(C)(C)C)c2cccc(C(N)=O)c2)cc1 (stereo not drawn) [drawing 70: 3-CONH2,4-CH2NHAc]		IC50 (Table 4, STAT6 binding): < 1 µM
	CC(=O)NCc1ccc(N(Cc2ccc(C(N)=O)cc2)C(=O)C2CCCN2C(=O)C(NC(=O)C=Cc2ccc(OP(=O)(O)O)cc2)C(C)(C)C)cc1 (stereo not drawn) [drawing 70: 4-CH2NHAc, 4-CONH2]		IC50 (Table 4, STAT6 binding): < 1 µM
	CC(=O)NCc1ccc(CN(C(=O)C2CCCN2C(=O)C(NC(=O)C=Cc2ccc(OP(=O)(O)O)cc2)C(C)(C)C)c2ccc(C(N)=O)cc2)cc1 (stereo not drawn) [drawing 70: 4-CONH2,4-CH2NHAc]		IC50 (Table 4, STAT6 binding): < 1 µM
	CC(C)(C)C(NC(=O)C=Cc1ccc(OP(=O)(O)O)cc1)C(=O)N1CCCC1C(=O)N(Cc1ccc(I)cc1)c1ccccc1 (stereo not drawn) [drawing 70: H, 4-I]		IC50 (Table 4, STAT6 binding): < 1 µM
	CC(C)(C)C(NC(=O)C=Cc1ccc(OP(=O)(O)O)cc1)C(=O)N1CCCC1C(=O)N(Cc1ccc(-c2ccccc2)cc1)c1ccccc1 (stereo not drawn) [drawing 70: H, 4-phenyl]		IC50 (Table 4, STAT6 binding): 1 to 50 µM
